The target of one experiment is T1, Human Platelet PDE IIIc (Homo sapiens, UniProt Q14432).
T1 construct: canine heart and human platelet phosphodiesterase PDE IIIc; from tissue; host or cells: human platelets
The experiment can be described thus: Inhibition of phosphodiesterase type IIIc (3H-cAMP hydrolysis), human platelet enzyme. It counts as biochemical. The following applies: pH 7.1, 1.2 µM 3H-cAMP, 10 min at 37°C; IC50 calculated graphically. As to the method: The incubation mixture (pH 7.1) (200 »l) contained 50mM 4-morpholinopropanesulfonic acid (MOPS), 1mM ethylenebis(oxyethylenenitrilo)tetraacetic acid (EGTA), 6 mM magnesium chloride, 0.25 mg/ml bovine serum albumin, 1.2 »M ³H-cAMP (310 mCi/mmole) and the phosphodiesterase type IIIc, and was prepared by dilution with water of a stock solution of MOPS, EGTA, MgCl₂, BSA and ³H-cAMP (50 »l) and 2 to 50 »l of a solution of phosphodiesterase type IIIc, depending on the enzymatic activity. […] When the effect of different compounds on phosphodiesterase activity was tested, the medium without cAMP was incubated with the compound(s) or its carrier (DMSO - 1% final concentration) for 5 min. The enzymatic reaction was started by addition of ³H-cAMP and stopped 10 min later after transferring the tubes in a waterbath at 100°C for 40 sec. After cooling to room temperature, alkaline phosphatase (0.25 »g/ml) was added and the mixture was left at room temperature for 20 min. The mixture was subsequently applied to a 1 ml DEAE-Sephadex A-25 column (pasteur pipet) and washed twice with 3 ml 20 mM Tris-HCl at pH 7.4. The ³H-labelled reaction products in the eluate were quantified by liquid scintillation counting. The inhibiting effect of the present compounds on canine heart and human platelet phosphodiesterase PDE IIIc was measured at different concentrations of the instant compounds. The IC₅₀ values were calculated graphically from the thus obtained inhibition values.

Experiment [1] relates to mongrel dogs. The experiment can be described thus: Haemodynamic variables in dogs after cumulative intravenous bolus administration. It counts as in vivo. The following applies: maximum end-dose 0.16 mg kg-1 (comp. 14: 0.08 mg kg-1). As to the method: Compound (9) was dissolved in 20% hydroxypropyl beta cyclodextrine ether slightly acidified with 1N HCl, in a concentration of 1mg.ml⁻¹ (pH 5.5). The experiments were performed on 7 mongrel dogs of either sex and varying age, ranging in body weight from 27 to 33 kg (median 30 kg). The animals were intravenously anaesthetized with a mixture of 0.015 mg.kg⁻¹ scopolamine and 0.05 mg.kg⁻¹ lofentanil. The animals were intubated with a cuffed endotracheal tube. Intermittent positive pressure ventilation was performed with a mixture of pressurized air and oxygen (60/40), using a volumecontrolled ventilator (Siemens Elema). In the control period the CO₂ concentration in the expired air (ET CO₂), as determined with a capnograph (Gould Godart), was kept at 5 vol% by adjustment of the respiratory volume (resp. rate = 20 breaths.min⁻¹). A continous intravenous infusion of 0.5 mg.kg⁻¹.h⁻¹ of etomidate was started immediately after induction. Body temperature was monitored with a thermistor positioned in the pulmonary artery. To prevent blood clotting heparine, 1000 IU.kg⁻¹ iv., was administered. The electrocardiogram (ECG) was derived from limb leads (standard lead 2). Left ventricular (LVP) and ascending aortic blood pressure (AoP) were measured by retrograde catheterisation via the femoral […] with high fidelity cathetertip micromanometers (Honeywell). The other femoral vein was cannulated for injection of saline at room temperature into the right atrium and for injection of compound (9). Peak ascending aortic blood flow velocity was measured through the right carotid artery with an electomagnetic catheter-tip probe connected to a square wave electomagnetic flow meter (Janssen Scientific Instruments). The following variables -inter alia- were calculated on-line, usually at 1 min intervals: heart rate (HR), diastolic (AoPd) aortic blood pressure, left ventricular end-diastolic pressure (LVEDP), the maximum positive and maximum negative rate of change of isovolumic LVP (LV dp/dt max and min, respectively), the maximum positive first derivative divided by the actually developed pressure in the left ventricle (LV dp/dtmax/Pd). The time constant (T) of relaxation was measured with the use of an exponential analysis that also estimated the asymptote. […] In the wash-out period the effects were followed for 75 min. […]

Experiment [2] concerns mongrel dogs. The experiment can be described thus: Positive inotropy and lusitropy, blood pressure and heart rate in anaesthetized dogs, slow intravenous infusion. The following applies: for cardiac output / heart rate: slow iv infusion over 120 min. It counts as in vivo. As to the method:
The positive inotropic and lusitropic effect of the instant compounds were assessed by an in vitro assay system to detect inhibiting effect on the phosphodiesterase type IIIc and in an in vivo experiment in closed-chest anaestetized dogs by monitoring cardiac and haemodynamic effects of an intravenous infusion of the instant compounds.
Compound (9) was dissolved in 20% hydroxypropyl beta cyclodextrine ether slightly acidified with 1N HCl, in a concentration of 1mg.ml⁻¹ (pH 5.5). The experiments were performed on 7 mongrel dogs of either sex and varying age, ranging in body weight from 27 to 33 kg (median 30 kg). The animals were intravenously anaesthetized with a mixture of 0.015 mg.kg⁻¹ scopolamine and 0.05 mg.kg⁻¹ lofentanil. The animals were intubated with a cuffed endotracheal tube. Intermittent positive pressure ventilation was performed with a mixture of pressurized air and oxygen (60/40), using a volumecontrolled ventilator (Siemens Elema). In the control period the CO₂ concentration in the expired air (ET CO₂), as determined with a capnograph (Gould Godart), was kept at 5 vol% by adjustment of the respiratory volume (resp. rate = 20 breaths.min⁻¹). A continous intravenous infusion of 0.5 mg.kg⁻¹.h⁻¹ of etomidate was started immediately after induction. Body temperature was monitored with a thermistor positioned in the pulmonary artery. To prevent blood clotting heparine, 1000 IU.kg⁻¹ iv., was administered. The electrocardiogram (ECG) was derived from limb leads (standard lead 2). Left ventricular (LVP) and ascending aortic blood pressure (AoP) were measured by retrograde catheterisation via the femoral […] with high fidelity cathetertip micromanometers (Honeywell). The other femoral vein was cannulated for injection of saline at room temperature into the right atrium and for injection of compound (9). Peak ascending aortic blood flow velocity was measured through the right carotid artery with an electomagnetic catheter-tip probe connected to a square wave electomagnetic flow meter (Janssen Scientific Instruments). The following variables -inter alia- were calculated on-line, usually at 1 min intervals: heart rate (HR), diastolic (AoPd) aortic blood pressure, left ventricular end-diastolic pressure (LVEDP), the maximum positive and maximum negative rate of change of isovolumic LVP (LV dp/dt max and min, respectively), the maximum positive first derivative divided by the actually developed pressure in the left ventricle (LV dp/dtmax/Pd). The time constant (T) of relaxation was measured with the use of an exponential analysis that also estimated the asymptote. After a recorded control period of 20 min the intravenous infusion of compound (9) was started at a rate of […]. In the wash-out period the effects were followed for 75 min. […] These positive inotropic and lusitropic, and vasodilatory effects of the compound (9) are long-lasting, since the changes in the variables last for more than 75 min after stopping the infusion of a total dose of 0.60 mg.kg⁻¹. […]

The mark [3] stands for this setting: slow infusion (0.005 mg kg-1 min-1) for two hours.

T1 sequence (Q14432 whole entry): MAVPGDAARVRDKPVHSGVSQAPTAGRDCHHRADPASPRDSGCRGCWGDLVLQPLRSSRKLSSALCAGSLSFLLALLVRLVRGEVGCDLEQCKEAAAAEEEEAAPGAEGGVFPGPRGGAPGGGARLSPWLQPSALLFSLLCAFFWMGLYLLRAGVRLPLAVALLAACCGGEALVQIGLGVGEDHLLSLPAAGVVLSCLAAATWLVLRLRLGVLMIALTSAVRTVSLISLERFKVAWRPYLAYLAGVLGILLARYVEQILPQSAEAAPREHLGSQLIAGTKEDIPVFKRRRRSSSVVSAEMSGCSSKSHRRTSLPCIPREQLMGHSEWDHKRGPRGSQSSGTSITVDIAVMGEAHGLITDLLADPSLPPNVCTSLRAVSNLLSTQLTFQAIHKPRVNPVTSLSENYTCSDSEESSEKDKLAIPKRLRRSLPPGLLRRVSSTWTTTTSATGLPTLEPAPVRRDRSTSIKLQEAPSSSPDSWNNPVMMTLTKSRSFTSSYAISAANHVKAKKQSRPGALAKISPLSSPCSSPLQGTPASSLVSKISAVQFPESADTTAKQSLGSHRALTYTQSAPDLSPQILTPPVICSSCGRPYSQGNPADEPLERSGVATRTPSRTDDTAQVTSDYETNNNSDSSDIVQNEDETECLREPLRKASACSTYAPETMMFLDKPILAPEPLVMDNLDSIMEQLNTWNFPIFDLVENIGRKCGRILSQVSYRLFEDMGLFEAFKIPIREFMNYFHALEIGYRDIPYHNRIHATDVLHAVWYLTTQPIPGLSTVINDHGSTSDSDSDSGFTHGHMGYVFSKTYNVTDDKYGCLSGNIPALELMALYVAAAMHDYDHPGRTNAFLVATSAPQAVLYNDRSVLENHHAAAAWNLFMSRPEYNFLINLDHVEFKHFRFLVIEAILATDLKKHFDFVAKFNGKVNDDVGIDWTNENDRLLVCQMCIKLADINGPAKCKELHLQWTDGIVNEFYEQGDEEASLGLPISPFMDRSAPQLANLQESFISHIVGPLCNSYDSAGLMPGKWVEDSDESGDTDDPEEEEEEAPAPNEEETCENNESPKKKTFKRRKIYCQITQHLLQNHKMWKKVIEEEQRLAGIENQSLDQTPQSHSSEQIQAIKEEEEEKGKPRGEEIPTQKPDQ

With `CN(C(=O)CO/N=C(/c1ccccc1)c1ccc2c(c1)CN1CC(=O)NC1=N2)C1CCCCC1` [compound 10, (Z)-N-cyclohexyl-N-methyl-2-[[[phenyl(1,2,3,5-tetrahydro-2-oxoimidazo[2,1-b]quinazolin-7-yl)methylene]amino]-oxy]acetamide], at Human Platelet PDE IIIc, the IC50 was 0.14 µM. Moreover, in the experiment on mongrel dogs [1], the “% changes in haemodynamic variables: AoPd (diastolic aortic blood pressure)” value (from here on “% changes … (diastolic aortic blood pressure)”) is given as -5%; the “% changes in haemodynamic variables: HR (heart rate)” value (from here on “% changes … (heart rate)”) amounted to 0%; the “% changes in haemodynamic variables: LVdp/dtmax/Pd (positive inotropic effect)” value is 18%; the “% changes in haemodynamic variables: T (time constant of relaxation, positive lusitropy)” value (“% changes in haemodynamic variables: T” for short) is listed as -13%.
On to `COc1ccc(C(=NO)c2ccc3c(c2)CN2CC(=O)NC2=N3)cc1` [compound 13], for which, in the experiment on mongrel dogs [1], the “% changes … (diastolic aortic blood pressure)” value is recorded as 0%; the “% changes … (heart rate)” value was -10%; the “% changes in haemodynamic variables: LVdp/dtmax/Pd (positive inotropic effect)” value worked out at 45%; the “% changes in haemodynamic variables: T” value is -27%.
For the molecule `CN(C(=O)CO/N=C(\c1ccccc1)c1ccc2c(c1)CN1CC(=O)NC1=N2)C1CCCCC1` [compound 9, (E)-N-cyclohexyl-N-methyl-2-[[[phenyl(1,2,3,5-tetrahydro-2-oxoimidazo[2,1-b]quinazolin-7-yl)methylene]amino]oxy]acetamide], the IC50 on Human Platelet PDE IIIc is 0.025 µM. Also, the “variables related to cardiac performance (LV dp/dtmax, LV dp/dtmax/Pd)” value in the experiment with mongrel dogs [2] (7 anaesthetized mongrel dogs, iv infusion over 120 min, starting after 10 min of infusion (0.05 mg.kg-1 total dose)) is “pronounced and significant increase”. Further, the “left ventricular end-diastolic pressure (preload)” value in the experiment with mongrel dogs [2] (anaesthetized mongrel dogs, iv infusion over 120 min) is “no change or even a slight decrease”. For the same molecule, the “time constant of relaxation” value in the experiment on mongrel dogs [2] (anaesthetized mongrel dogs, iv infusion, starting after 10 min of infusion (0.05 mg.kg-1 total dose)) is “significant decrease”. Moreover, in the experiment on mongrel dogs [2] (anaesthetized mongrel dogs, iv infusion, starting after 20 min of infusion (0.10 mg.kg-1 total dose)), the “Systemic and pulmonary peripheral vascular resistance” value is “decrease significantly”. Besides, in the experiment on mongrel dogs [2] (anaesthetized mongrel dogs), the cardiac output entry is on record as “concomitant increase in cardiac output” and the heart rate entry is given as “no change in heart rate”. For the same molecule, the “duration of the changes in the variables after stopping the infusion” value with mongrel dogs [2] (positive inotropic, lusitropic and vasodilatory effects, total dose of 0.60 mg.kg-1) is recorded as “more than 75 min”.
For the molecule `O=C1CN2Cc3cc(C(=NO)c4ccccc4)ccc3N=C2N1` [compound 2, (E+Z)-3,5-dihydro-7-[(hydroxyimino)phenylmethyl]imidazo[2,1-b]quinazolin-2(1H)-one], the IC50 at Human Platelet PDE IIIc was 0.19 µM. Moreover, in the experiment with mongrel dogs [1], the “% changes … (diastolic aortic blood pressure)” value is on record as -10%; the “% changes … (heart rate)” value worked out at 15%; the “% changes in haemodynamic variables: LVdp/dtmax/Pd (positive inotropic effect)” value is 102%; the “% changes in haemodynamic variables: T” value is reported as -38%.
In the case of `CCOC(=O)CON=C(c1ccccc1)c1ccc2c(c1)CN1CC(=O)NC1=N2` [compound 6], at Human Platelet PDE IIIc, the IC50 is 0.38 µM. Further, in the experiment on mongrel dogs [1], the “% changes … (diastolic aortic blood pressure)” value is recorded as -13%; the “% changes … (heart rate)” value worked out at 9%; the “% changes in haemodynamic variables: LVdp/dtmax/Pd (positive inotropic effect)” value was found to be 31%; the “% changes in haemodynamic variables: T” value is -15%.
With `CCOC(=O)C=C(c1ccccc1)c1ccc2c(c1)CN1CC(=O)NC1=N2` [compound 32], the IC50 at Human Platelet PDE IIIc was 0.084 µM.
On to `CN(C(=O)CON=C(c1ccccc1)c1ccc2c(c1)CN1CC(=O)NC1=N2)C1CCCCC1` [compound 8], for which the concentration for half-maximal inhibition (IC50) at Human Platelet PDE IIIc was 0.058 µM. In the experiment on mongrel dogs [1], the “% changes … (diastolic aortic blood pressure)” value was 0%; the “% changes … (heart rate)” value amounted to 0%; the “% changes in haemodynamic variables: LVdp/dtmax/Pd (positive inotropic effect)” value was 29%; the “% changes in haemodynamic variables: T” value was -45%.
With `COc1ccc(C(=O)c2ccc3c(c2)CN2CC(=O)NC2=N3)cc1OC` [compound 24], the IC50 on Human Platelet PDE IIIc was 0.34 µM.
As to `O=C1CN2Cc3cc(/C(=N/O)c4ccccc4)ccc3N=C2N1` [compound 3, (E)-3,5-dihydro-7-[(hydroxyimino)phenylmethyl]imidazo[2,1-b]quinazolin-2(1H)-one], on Human Platelet PDE IIIc, the IC50 is 0.19 µM. Besides, in the experiment on mongrel dogs [2] (anaesthetized mongrel dogs), the cardiac output entry is recorded as “increase in cardiac output” and the heart rate entry is recorded as “without changing the heart rate”. Further, in the experiment on mongrel dogs [2] (setting [3]), the “cardiac inotropy and lusitropy” value is given as “dose-related increase”; the “duration of effects after stopping the infusion” value was “more than 90 minutes”; the systemic vasodilation result is listed as “dose-related systemic vasodilation”.
As to `COc1ccc(C(=O)c2ccc3c(c2)CN2CC(=O)NC2=N3)cc1` [compound 12], in the experiment with mongrel dogs [1], the “% changes … (diastolic aortic blood pressure)” value is reported as 0%; the “% changes … (heart rate)” value was 10%; the “% changes in haemodynamic variables: LVdp/dtmax/Pd (positive inotropic effect)” value is recorded as 57.5%; the “% changes in haemodynamic variables: T” value was -10%.
With `O=C1CN2Cc3cc(C(=O)c4ccc(F)cc4)ccc3N=C2N1` [compound 14], the IC50 on Human Platelet PDE IIIc was 0.52 µM. For the same molecule, in the experiment on mongrel dogs [1], the “% changes … (diastolic aortic blood pressure)” value was found to be 0%; the “% changes … (heart rate)” value is listed as 5%; the “% changes in haemodynamic variables: LVdp/dtmax/Pd (positive inotropic effect)” value is 35%; the “% changes in haemodynamic variables: T” value is reported as -16%.

Broadly, the IC50 is the concentration needed to halve the response being measured.
